Data published in ChEMBL document CHEMBL5053541, “Andrographolide derivative as antagonist of vitamin D receptor to induce lipidation of microtubule associate protein 1 light chain 3 (LC3)” (Bioorg Med Chem, 2021).
Calls of active or inactive are those of the source. The rule behind the calls is not given here.

How the values were obtained:
[1] = system: HeLa; experiment: Cytotoxicity against human HeLa cells assessed as reduction in cell viability measured after 24 hrs by methylene blue staining based assay
[2] = molecular target: T1, Vitamin D3 receptor (Homo sapiens) (UniProt P11473); experiment: Antagonist activity against calcitriol-activated VDR signalling in human HeLa cells assessed as inhibition of VDR signalling incubated with calcitriol for 1 hr followed by compound addition and measured after 24 hrs by luciferase reporter gene assay; assay type: cell-based
T1 sequence (whole entry): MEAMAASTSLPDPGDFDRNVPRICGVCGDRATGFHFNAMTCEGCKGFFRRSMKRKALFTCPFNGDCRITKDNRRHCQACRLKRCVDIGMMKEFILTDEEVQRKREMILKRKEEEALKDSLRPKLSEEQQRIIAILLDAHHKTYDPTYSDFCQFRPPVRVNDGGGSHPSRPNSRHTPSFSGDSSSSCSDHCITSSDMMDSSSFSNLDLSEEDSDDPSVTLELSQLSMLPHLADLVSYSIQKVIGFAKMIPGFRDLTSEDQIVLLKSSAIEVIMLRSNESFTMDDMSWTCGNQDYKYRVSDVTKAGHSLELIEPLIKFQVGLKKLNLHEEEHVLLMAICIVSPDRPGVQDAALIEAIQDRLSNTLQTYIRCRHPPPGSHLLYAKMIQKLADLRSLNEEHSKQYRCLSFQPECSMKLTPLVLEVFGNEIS

[3] = molecular target: Signal transducer and activator of transcription 3 (Homo sapiens) (UniProt P40763); experiment: Inhibition of IFN-gamma stimulated STAT3 signalling in human HeLa cells incubated for 1 hr withIFN-gamma followed by compound addition and measured after 24 hrs by luciferase reporter gene assay; assay type: cell-based
[4] = molecular target: Nuclear factor NF-kappa-B complex (Homo sapiens) (UniProt Q00653+P19838+Q04206); experiment: Inhibition of TNF-alpha induced NF-kappaB signalling in human HeLa cells incubated with TNF-alpha for 1 hr followed by compound addition and measured after 24 hrs by luciferase reporter gene assay; assay type: cell-based
[5] = molecular target: T1, Vitamin D3 receptor (Homo sapiens); experiment: Antagonist activity at VDR in human HeLa cells assessed as decrease in p62 expression at 10 uM in presence or absence of calcitriol measured after 4 hrs by western blot analysis; assay type: cell-based; conditions: filed as antagonist
[6] = molecular target: T1, Vitamin D3 receptor (Homo sapiens); experiment: Antagonist activity at VDR in human HeLa cells assessed as reduction in CYP27B1 mRNA expression at 10 uM measured after 4 hrs by […]; assay type: cell-based; conditions: filed as antagonist
[7] = molecular target: T1, Vitamin D3 receptor (Homo sapiens); experiment: Antagonist activity at VDR in human HeLa cells assessed as increase in ratio of LC3-II to LC-I at 10 uM in presence or absence of calcitriol measured after 4 hrs by western blot analysis; assay type: cell-based; conditions: filed as antagonist
[8] = system: N2a; experiment: Induction of autophagy in MPP+-induced mouse N2a cells expressing myc-VDR plasmid assessed as LC3 lipidation at 10 uM measured after 6 hrs by western blot analysis; assay type: functional, cell-based
[9] = system: N2a; experiment: Inhibition of lipid synthesis related gene expression in MPP+-induced mouse N2a cells assessed as reduction in Insig-1 gene expression measured after 6 hrs by qRT-PCR analysis; assay type: functional
[10] = system: N2a; experiment: Inhibition of lipid synthesis related gene expression in MPP+-induced mouse N2a cells assessed as reduction in Ldr gene expression measured after 6 hrs by qRT-PCR analysis; assay type: functional
[11] = system: N2a; experiment: Induction of autophagy in MPP+-induced mouse N2a cells transfected with Atg7 shRNA assessed as increase in LC3-II expression at 10 uM measured after 6 hrs by western blot analysis; assay type: functional, cell-based
[12] = system: N2a; experiment: Upregulation of SREBP2 cleavage in MPP+-induced mouse N2a cells assessed as increase in active cleaved form of SREBP2 level measured up to 6 hrs by western blot analysis; assay type: functional
[13] = system: SH-SY5Y; experiment: Neuroprotective activity against A53T SNCA-induced cytotoxicity in human SH-SY5Y cells assessed as decrease in A53T SNCA induced LDH release at 10 uM by LDH assay; assay type: functional, cell-based
[14] = system: N2a; experiment: Inhibition of lipid synthesis related gene expression in MPP+-induced mouse N2a cells assessed as reduction in Fasn gene expression measured after 6 hrs by qRT-PCR analysis; assay type: functional
[15] = system: N2a; experiment: Induction of autophagy in MPP+-induced mouse N2a cells assessed as increase in LC3-II expression at 10 uM measured after 6 hrs by western blot analysis; assay type: functional, cell-based
[16] = system: N2a; experiment: Induction of autophagy in MPP+-induced mouse N2a cells infected with pAde-LC3-EGFP- mCherry assessed as formation of mCherry foci by measuring increased in red fluorescence at 10 uM measured after 4 hrs by Hoechst staining based confocal microscope analysis; assay type: functional, cell-based
[17] = system: N2a; experiment: Effect on SNCA oligomerization in mouse N2a cells transfected with Syn-luc1 and Syn-luc2 plasmids assessed as reduction in SNCA self-oligomerization by measuring luciferase activity at 10 to 20 uM measured after 6 hrs by bioluminescent protein-fragment complementation assay; assay type: functional, cell-based; conditions: dose 10-20 µM
[18] = system: N2a; experiment: Upregulation of SREBP2 cleavage in MPP+-induced mouse N2a cells assessed as increase in active form of phospho-SREBP2 level measured up to 6 hrs by western blot analysis; assay type: functional
[19] = system: N2a; experiment: Inhibition of lipid synthesis related gene expression in MPP+-induced mouse N2a cells assessed as reduction in Scap gene expression measured after 6 hrs by qRT-PCR analysis; assay type: functional
[20] = system: SH-SY5Y; experiment: Neuroprotective activity against SNCA-induced neurotoxicity in human SH-SY5Y cells transfected with adenovirus expressing […] SNCA assessed as reduction in […] SNCA expression at 10 uM measured after 6 hrs by western blot analysis; assay type: functional, cell-based
[21] = molecular target: T1, Vitamin D3 receptor (Homo sapiens); experiment: Antagonist activity at VDR in human HeLa cells assessed as decrease in mTOR phosphorylation at Ser2448 residue at 10 uM in presence or absence of calcitriol measured after 4 hrs by western blot analysis; assay type: cell-based
[22] = system: N2a; experiment: Inhibition of lipid synthesis related gene expression in MPP+-induced mouse N2a cells assessed as reduction in ACACA gene expression measured after 6 hrs by qRT-PCR analysis; assay type: functional
[23] = system: N2a; experiment: Effect on SNCA oligomerization in mouse N2a cells transfected with Syn-luc1 and Syn-luc2 plasmids assessed as reduction in SNCA self-oligomerization by measuring luciferase activity at 100 nM measured after 6 hrs by bioluminescent protein-fragment complementation assay; assay type: functional, cell-based
[24] = molecular target: T1, Vitamin D3 receptor (Homo sapiens); experiment: Antagonist activity at VDR in human HeLa cells assessed as decrease in p62 expression at 100 nM in presence or absence of calcitriol measured after 4 hrs by western blot analysis; assay type: cell-based; conditions: filed as antagonist
[25] = system: SH-SY5Y; experiment: Neuroprotective activity against SNCA-induced neurotoxicity in human SH-SY5Y cells transfected with adenovirus expressing […] SNCA assessed as inhibition of mTOR activation at 100 nM measured after 6 hrs by western blot analysis; assay type: functional, cell-based
[26] = system: SH-SY5Y; experiment: Neuroprotective activity against A53T SNCA-induced cytotoxicity in human SH-SY5Y cells assessed as decrease in A53T SNCA induced LDH release at 100 nM by LDH assay; assay type: functional, cell-based
[27] = molecular target: T1, Vitamin D3 receptor (Homo sapiens); experiment: Antagonist activity at VDR in human HeLa cells assessed as decrease in mTOR phosphorylation at Ser2448 residue at 100 nM in presence or absence of calcitriol measured after 4 hrs by western blot analysis; assay type: cell-based
[28] = system: SH-SY5Y; experiment: Neuroprotective activity against SNCA-induced neurotoxicity in human SH-SY5Y cells transfected with adenovirus expressing […] SNCA assessed as inhibition of p62 expression at 100 nM measured after 6 hrs by western blot analysis; assay type: functional, cell-based
[29] = system: SH-SY5Y; experiment: Neuroprotective activity against SNCA-induced neurotoxicity in human SH-SY5Y cells transfected with adenovirus expressing […] SNCA assessed as reduction in […] SNCA expression at 100 nM measured after 6 hrs by western blot analysis; assay type: functional, cell-based
[30] = system: N2a; experiment: Induction of autophagy in MPP+-induced mouse N2a cells infected with pAde-LC3-EGFP- mCherry assessed as formation of mCherry foci by measuring increased in red fluorescence at 500 nM measured after 4 hrs by Hoechst staining based confocal microscope analysis; assay type: functional, cell-based
[31] = molecular target: T1, Vitamin D3 receptor (Homo sapiens); experiment: Antagonist activity at VDR in human HeLa cells assessed as increase in ratio of LC3-II to LC-I at 100 nM in presence or absence of calcitriol measured after 4 hrs by western blot analysis; assay type: cell-based
[32] = molecular target: T1, Vitamin D3 receptor (Homo sapiens); experiment: Antagonist activity at VDR in human HeLa cells assessed as reduction in CYP27B1 mRNA expression at 10 uM in presence of calcitriol measured after 4 hrs by […]; assay type: cell-based

Chain of Nuclear factor NF-kappa-B complex (Homo sapiens) (P19838 whole entry, looked up): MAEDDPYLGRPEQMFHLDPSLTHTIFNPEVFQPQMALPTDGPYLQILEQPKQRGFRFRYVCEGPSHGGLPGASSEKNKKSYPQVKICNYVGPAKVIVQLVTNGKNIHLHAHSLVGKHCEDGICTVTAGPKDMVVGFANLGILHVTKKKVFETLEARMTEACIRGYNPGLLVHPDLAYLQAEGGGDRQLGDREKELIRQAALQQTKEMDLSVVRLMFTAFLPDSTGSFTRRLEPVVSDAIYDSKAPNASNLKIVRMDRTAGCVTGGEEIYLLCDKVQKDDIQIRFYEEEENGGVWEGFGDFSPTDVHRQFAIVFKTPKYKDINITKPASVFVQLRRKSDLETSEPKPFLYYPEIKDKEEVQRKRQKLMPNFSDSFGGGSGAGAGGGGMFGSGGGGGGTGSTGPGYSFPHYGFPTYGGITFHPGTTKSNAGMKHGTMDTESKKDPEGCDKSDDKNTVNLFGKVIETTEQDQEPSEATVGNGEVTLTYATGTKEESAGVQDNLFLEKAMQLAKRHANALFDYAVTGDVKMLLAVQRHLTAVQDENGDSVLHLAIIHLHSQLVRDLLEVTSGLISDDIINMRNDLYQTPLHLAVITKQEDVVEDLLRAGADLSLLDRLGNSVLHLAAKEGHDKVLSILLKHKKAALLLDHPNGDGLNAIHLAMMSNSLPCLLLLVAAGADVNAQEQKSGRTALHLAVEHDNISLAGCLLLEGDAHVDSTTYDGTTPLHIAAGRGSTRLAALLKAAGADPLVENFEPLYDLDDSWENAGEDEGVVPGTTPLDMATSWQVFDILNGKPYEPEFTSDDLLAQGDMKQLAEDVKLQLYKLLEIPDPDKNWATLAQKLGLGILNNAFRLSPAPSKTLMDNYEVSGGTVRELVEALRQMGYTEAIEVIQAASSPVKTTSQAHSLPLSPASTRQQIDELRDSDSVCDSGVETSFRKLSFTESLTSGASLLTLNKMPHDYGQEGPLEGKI
Chain of Nuclear factor NF-kappa-B complex (Homo sapiens) (Q00653 whole entry, looked up): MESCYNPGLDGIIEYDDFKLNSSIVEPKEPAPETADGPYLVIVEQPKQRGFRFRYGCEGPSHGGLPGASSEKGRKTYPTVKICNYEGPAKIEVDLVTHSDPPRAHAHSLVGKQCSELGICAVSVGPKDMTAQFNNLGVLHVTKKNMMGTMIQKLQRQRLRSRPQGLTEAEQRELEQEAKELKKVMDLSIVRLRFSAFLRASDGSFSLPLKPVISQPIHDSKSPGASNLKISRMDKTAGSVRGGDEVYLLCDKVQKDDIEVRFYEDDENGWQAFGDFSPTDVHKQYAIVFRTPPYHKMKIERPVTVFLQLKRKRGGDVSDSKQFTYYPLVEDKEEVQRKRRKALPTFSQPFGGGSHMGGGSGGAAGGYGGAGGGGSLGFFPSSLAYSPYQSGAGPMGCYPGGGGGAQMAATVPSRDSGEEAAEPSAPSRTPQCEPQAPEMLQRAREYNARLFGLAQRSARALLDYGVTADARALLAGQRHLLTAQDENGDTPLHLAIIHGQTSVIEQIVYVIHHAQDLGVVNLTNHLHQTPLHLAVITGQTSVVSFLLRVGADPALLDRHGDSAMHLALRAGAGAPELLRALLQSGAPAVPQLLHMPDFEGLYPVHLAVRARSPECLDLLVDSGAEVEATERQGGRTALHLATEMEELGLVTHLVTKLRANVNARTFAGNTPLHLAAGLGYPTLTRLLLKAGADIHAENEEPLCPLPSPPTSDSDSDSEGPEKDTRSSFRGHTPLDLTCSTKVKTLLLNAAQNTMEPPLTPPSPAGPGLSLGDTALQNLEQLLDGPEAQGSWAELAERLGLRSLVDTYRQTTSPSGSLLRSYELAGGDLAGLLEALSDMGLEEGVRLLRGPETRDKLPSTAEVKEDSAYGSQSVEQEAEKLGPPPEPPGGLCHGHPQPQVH
Chain of Nuclear factor NF-kappa-B complex (Homo sapiens) (Q04206 whole entry, looked up): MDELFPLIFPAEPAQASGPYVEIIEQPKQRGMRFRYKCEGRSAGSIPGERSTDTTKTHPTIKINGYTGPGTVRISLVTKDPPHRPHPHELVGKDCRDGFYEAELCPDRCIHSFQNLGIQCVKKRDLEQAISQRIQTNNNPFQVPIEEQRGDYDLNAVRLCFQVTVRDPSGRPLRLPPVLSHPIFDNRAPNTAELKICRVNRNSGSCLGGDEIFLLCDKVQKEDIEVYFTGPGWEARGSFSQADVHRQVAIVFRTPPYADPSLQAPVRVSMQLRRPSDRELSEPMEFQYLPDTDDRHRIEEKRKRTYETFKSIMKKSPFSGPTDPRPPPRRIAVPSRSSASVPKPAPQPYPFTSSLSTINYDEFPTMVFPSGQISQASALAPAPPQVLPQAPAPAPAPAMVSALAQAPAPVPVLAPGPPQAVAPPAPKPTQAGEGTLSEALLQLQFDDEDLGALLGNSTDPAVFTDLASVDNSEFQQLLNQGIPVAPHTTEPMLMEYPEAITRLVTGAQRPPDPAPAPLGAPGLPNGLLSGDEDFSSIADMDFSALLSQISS
Chain of Signal transducer and activator of transcription 3 (Homo sapiens) (P40763 whole entry): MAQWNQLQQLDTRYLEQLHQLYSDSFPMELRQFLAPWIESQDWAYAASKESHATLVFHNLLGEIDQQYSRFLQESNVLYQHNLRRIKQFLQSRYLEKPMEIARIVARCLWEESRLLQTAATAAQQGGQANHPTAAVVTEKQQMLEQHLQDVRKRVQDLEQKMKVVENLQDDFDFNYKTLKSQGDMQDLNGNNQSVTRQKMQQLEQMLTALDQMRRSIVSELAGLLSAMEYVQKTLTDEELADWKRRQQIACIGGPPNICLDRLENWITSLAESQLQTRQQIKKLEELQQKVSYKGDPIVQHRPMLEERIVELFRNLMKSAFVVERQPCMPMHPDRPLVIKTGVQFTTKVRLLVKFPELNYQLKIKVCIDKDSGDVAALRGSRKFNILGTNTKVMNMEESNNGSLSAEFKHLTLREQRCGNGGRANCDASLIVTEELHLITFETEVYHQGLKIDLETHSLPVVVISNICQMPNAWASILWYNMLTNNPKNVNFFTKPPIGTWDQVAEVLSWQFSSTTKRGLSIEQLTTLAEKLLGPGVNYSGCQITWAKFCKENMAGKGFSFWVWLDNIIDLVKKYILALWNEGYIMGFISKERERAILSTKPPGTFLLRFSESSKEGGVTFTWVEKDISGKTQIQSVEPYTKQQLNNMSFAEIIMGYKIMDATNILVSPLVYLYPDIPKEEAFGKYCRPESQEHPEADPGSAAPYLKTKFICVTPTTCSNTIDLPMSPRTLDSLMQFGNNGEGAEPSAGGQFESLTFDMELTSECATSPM

SMILES	Activity [1]	inhibition [2]	inhibition [3]	inhibition ([2]; filed as antagonist)	other results
C=C1CC[C@@H]2[C@]3(C)COC(C)(C)O[C@@H]3CC[C@@]2(C)[C@@H]1C/C=C(/COC(C)=O)[C@@H](COC(C)=O)O[Si](C)(C)C(C)(C)C	Non-Toxic	inactive	inactive		
C=C1CC[C@@H]2[C@](C)(COC(C)=O)[C@H](OC(C)=O)CC[C@@]2(C)[C@@H]1C/C=C(/COC(C)=O)[C@@H](COC(C)=O)O[Si](C)(C)C(C)(C)C	Non-Toxic	inactive	inactive		
C=C1CC[C@@H]2[C@](C)(CO)[C@H](O)CC[C@@]2(C)[C@@H]1C/C=C1/C(O)OC[C@H]1O[Si](C)(C)C(C)(C)C (stereo partly drawn)	Non-Toxic		inactive	Active	
C=C1CC[C@@H]2[C@]3(C)COC(C)(C)O[C@@H]3CC[C@@]2(C)[C@@H]1C/C=C(/CO)[C@@H](CO)O[Si](CC)(CC)CC	Non-Toxic		inactive	Active	inhibition [4]: Active
C=C1CC[C@@H]2[C@]3(C)COC(C)(C)O[C@@H]3CC[C@@]2(C)[C@@H]1C/C=C1/C(=O)OC[C@H]1O[Si](C)(C)C(C)(C)C	Non-Toxic	inactive	inactive		
C=C1CC[C@@H]2[C@]3(C)COC(C)(C)O[C@@H]3CC[C@@]2(C)[C@@H]1C/C=C1/C(=O)OC[C@H]1O[Si](CC)(CC)CC	Non-Toxic	inactive	inactive		Activity [5]: Active
C=C1CC[C@@H]2[C@](C)(COC(C)=O)[C@H](O)CC[C@@]2(C)[C@@H]1C/C=C(/COC(C)=O)[C@@H](COC(C)=O)O[Si](C)(C)C(C)(C)C	Non-Toxic		inactive	Active	inhibition [6]: Active; Activity [7]: Active; Activity [8]: inactive; Activity [9]: inactive; Activity [10]: inactive; Activity [11]: Active; Activity [12]: Active; Activity [13]: Active; Activity [14]: inactive; Activity [15]: Active; Activity [16]: Active; Activity [17]: Active; Activity [18]: Active; Activity [19]: inactive; Activity [20]: Active; inhibition [21]: inactive; Activity [22]: inactive
C=C1CC[C@@H]2[C@]3(C)COC(C)(C)O[C@@H]3CC[C@@]2(C)[C@@H]1C/C=C1/C(O)OC[C@H]1O[Si](C)(C)C(C)(C)C (stereo partly drawn)	Non-Toxic	inactive	inactive		inhibition [4]: inactive
CCC(=O)N1CCN(c2ccc(-n3c(=O)ccc4cnc5ccc(-c6cnc7ccccc7c6)cc5c43)cc2C(F)(F)F)CC1					Activity [23]: Active; Activity [24]: Active; inhibition [25]: Active; Activity [26]: Active; Activity [27]: inactive; Activity [15]: Active; inhibition [28]: Active; Activity [29]: Active; Activity [30]: Active; Activity [31]: inactive
C=C1CC[C@@H]2[C@](C)(CO)[C@H](O)CC[C@@]2(C)[C@@H]1C/C=C(/COC(C)=O)[C@@H](COC(C)=O)O[Si](C)(C)C(C)(C)C	Non-Toxic		inactive	Active	Activity [7]: Active; Activity [32]: inactive; inhibition ([21]; filed as antagonist): Active
C=C1CC[C@@H]2[C@](C)(CO)[C@H](O)CC[C@@]2(C)[C@@H]1C/C=C1/C(O)OC[C@H]1O[Si](CC)(CC)CC (stereo partly drawn)	Non-Toxic	inactive	inactive		
C=C1CC[C@@H]2[C@]3(C)COC(C)(C)O[C@@H]3CC[C@@]2(C)[C@@H]1C/C=C(/CO)[C@@H](CO)O[Si](C)(C)C(C)(C)C	Non-Toxic	inactive	inactive		inhibition [4]: inactive
C=C1CC[C@@H]2[C@]3(C)COC(C)(C)O[C@@H]3CC[C@@]2(C)[C@@H]1C/C=C1/C(O)OC[C@H]1O[Si](CC)(CC)CC (stereo partly drawn)	Non-Toxic		inactive	Active	inhibition [6]: Active; Activity [7]: Active; inhibition ([21]; filed as antagonist): Active
C=C1CC[C@@H]2[C@]3(C)COC(C)(C)O[C@@H]3CC[C@@]2(C)[C@@H]1C/C=C(/C=O)[C@@H](COC(C)=O)O[Si](C)(C)C(C)(C)C	Non-Toxic		inactive	Active	inhibition [6]: Active; inhibition ([21]; filed as antagonist): Active
